Earlier results on one compound are cited in patent US20250000823A1, “METHODS AND COMPOSITIONS FOR TREATING CONDITIONS ASSOCIATED WITH CENTRAL HYPOVENTILATION” (APNIMED, INC. (DELAWARE), priority 2021, published 2025).

The data set concerns patients with OHS. The following applies: acetazolamide alone.

As for `CC(=O)Nc1nnc(S(N)(=O)=O)s1` [Acetazolamide, N-(5-Sulfamoyl-1,3,4-thiadiazol-2-yl)acetamide], the alveolar ventilation entry is recorded as “improve alveolar ventilation”.
